Test results from patent US3988466A, “Prevention of gastric lesions” (priority 1973, dated 1976).

Legend:
[1] = tested on: aspirin-induced gastric lesions in pylorus-ligated rats; assay: Effect of L-glutamine on aspirin-induced gastric lesions in pylorus-ligated rats (Experiment 1); format: in vivo, male Donryu strain rats; settings: for Ulcer index / Inhibition: aspirin 100 mg/kg oral; for Ulcer index: 7 hours; for Inhibition: vs control ulcer index
Description: In this Experiment, 6 groups of male Donryu strain rats are used. The animals are fasted for 24 hours but water is allowed ad libitum. Under ether anesthesia, the pylorus is ligated according to the standard method of Shay et al. Five groups are treated with graded doses of L-glutamine suspended in 1% carboxymethylcellulose solution by oral administration immediately after the pylorus ligation. A sixth group (control) is treated with 5 ml/kg of 1% carboxymethylcellulose solution alone. […] After a 7-hour interval during which the animals are not allowed feed or water, the animals are killed by an overdose of ether. […] The stomach is removed and slightly inflated by injection of 1% formalin solution through the esophagel junction. […] The stomach is opened along the greater curvature and the length of lesions (dark blue areas against pale blue background) in the glandular portion is measured under a dissecting microscope (10x) provided with a square grid. […] The ulcer index expressed by mm indicates the mean value of the sum of the length of the lesions per animal of each group. The level of significance is calculated according to Student t-test.

[2] = tested on: aspirin-induced gastric lesions in pylorus-ligated rats; assay: Effect of various amino acids on aspirin-induced gastric lesions in pylorus-ligated rats (Experiment 3); format: in vivo, male Donryu strain rats
[3] = pH of amino acids in 1% carboxymethylcellulose solution; format: physicochemical; settings: 150 mg/ml in 1% carboxymethylcellulose solution
Description: The pH values of the amino acids are also determined. The amino acids are separately dissolved or suspended in 1% carboxymethylcellulose solution at a concentration of 150 mg/ml and the pH is measured on an Hitachi pH meter (product of Hitachi Ltd., Japan).

[4] = tested on: gastric secretion in pylorus-ligated rats; assay: Effect of L-glutamine on gastric secretion in pylorus-ligated rats (Experiment 4); format: in vivo, male Donryu strain rats; settings: for Gastric juice volume / Pepsin concentration / Titrable acidity: 7 hours; for Acid output: volume × titrable acidity / 7 hours
Description: In this Experiment, 7 groups of male Donryu strain rats are used. After 24 hours of fasting, the pylorus of the animal is ligated in the same manner as described in Experiment 1. Six groups are treated in the same manner as described in Experiment 1 except for the injection of the solution of pontamine sky blue 6BX in saline. A seventh group (normal) is treated twice with 5 ml/kg of 1% carboxymethylcellulose solution.
After 7 hours of pylorus ligation, the animals are killed and the stomach is removed. The gastric juice is collected and the volume is measured. The gastric juice is titrated to pH 7.4 with 0.1N NaOH using an electromatic pH meter. The concentration of pepsin in the gastric juice is also determined according to Anson's hemoglobin method [Anson, M. L., J. Gen. Physiol.

[5] = Effect of L-glutamine on absorption of aspirin in rats (plasma salicylate level; Experiment A); format: in vivo, male Wistar strain rats; settings: L-glutamine administered together with aspirin
Description: In this Experiment, 2 groups of male Wistar strain rats weighing about 280-320 g, each consisting of 12 animals are fixed in supine position. Under ether anesthesia, the carotid artery is cannulated for blood sampling. Upon recovery from the anesthesia, one group is treated with 1000 mg/kg of L-glutamine suspended in 1% carboxymethylcellulose solution and the other group (control) with 5 ml/kg of 1% carboxymethylcellulose solution alone, by oral administration. […] The same treatments are applied also to 2 groups of pylorus-ligated rats, each consisting of 5 animals.
The blood sample is centrifuged at 8,000 r.p.m. for 5 minutes and 20 μl of plasma is collected for the measurement of salicylate concentration. Salicylate concentration of plasma is determined according to the method of Lever & Powell [Lever, M. and Powell, J. C.: Biochem. Med., 7, 203 (1973)].

[6] = tested on: yeast-induced fever in rats; assay: Effect of L-glutamine on antipyretic activity of aspirin in rats (Experiment B); format: in vivo, male Wistar strain rats; settings: for Rectal temperature: L-glutamine 1000 mg/kg oral
Description: In this Experiment, male Wistar strain rats weighing about 90-100 g are treated with 2.5 ml/rat of a suspension of yeast (Brewers Yeast, product of Nutritional Biochem. Co., U.S.A.) in physiological saline (concentration: 250 mg/ml), by subcutaneous injection in the back, according to the method of Gleen et al [Gleen, E. M. et al: J. Pharma. Exp. Therp., 155, 157 (1967)]. The animals are then fasted. The animals showing an increased rectal temperature of 38° C or more after 17 hours are selected for use in experiment. […] As a control, one group is treated with 105 ml of 1% carboxymethylcellulose solution alone. After the treatment, the rectal temperature is measured at the time indicated.

[7] = tested on: carageenin-induced paw edema in rats; assay: Effect of L-glutamine on anti-inflammatory activity of aspirin in rats (Experiment D); format: in vivo, male Donryu strain rats
Description: As a control, a sixth group is treated with 1% carboxymethylcellulose solution. After one hour, the animals are treated with a phlogistic agent of 0.1 ml of 1% carrageenin solution by subcutaneous injection in a hind paw, according to the method of Yamasaki et al. [Yamasaki, H. et al: Folia Pharm. Jap., 63, 302 (1967)]. Swelling of the paw is measured 5 hours after the administration of the phlogistic agent.

[8] = L-glutamine 62.5 mg/kg, aspirin 100 mg/kg
[9] = L-glutamine 125 mg/kg, aspirin 100 mg/kg
[10] = L-glutamine 250 mg/kg, aspirin 100 mg/kg
[11] = L-glutamine 500 mg/kg, aspirin 100 mg/kg
[12] = L-glutamine 1000 mg/kg in presence of aspirin
[13] = L-glutamine 1,000 mg/kg, aspirin 100 mg/kg
[14] = L-glutamine 1000 mg/kg oral, 5 hours after phlogistic agent

NC(=O)CC[C@H](N)C(=O)O [L-glutamine]
Ulcer index ([1]; L-glutamine 62.5 mg/kg oral): 57.6±5.6 mm | Inhibition ([1]; L-glutamine 62.5 mg/kg oral): -5.0% | gastric lesions preventive effect [1, 8]: no such effect is observed | Ulcer index ([1]; L-glutamine 125 mg/kg oral): 27.9±4.7 mm | Inhibition ([1]; L-glutamine 125 mg/kg oral): 49.0% | Ulcer index ([1]; L-glutamine 250 mg/kg oral): 15.0±3.4 mm | Inhibition ([1]; L-glutamine 250 mg/kg oral): 72.6% | Ulcer index ([1]; L-glutamine 500 mg/kg oral): 18.0±3.1 mm | Inhibition ([1]; L-glutamine 500 mg/kg oral): 67.1% | Ulcer index ([1]; L-glutamine 1,000 mg/kg oral): 3.5±1.5 mm | Inhibition ([1]; L-glutamine 1,000 mg/kg oral): 93.6% | animals with stomachs quite clear and no mucosal defect ([1]; L-glutamine 1000 mg/kg, aspirin 100 mg/kg): three out of 12 | inhibition in vivo at 750 mg/kg ([2]; Rattus norvegicus, po, read-out: Inhibition): 87.8% | Ulcer index ([2]; amino acid 750 mg/kg oral, aspirin by gastric intubation): 5.5±2.0 mm | Amino acid pH [3]: 6.65 | acid parameters (in words) ([4]; L-glutamine 62.5 mg/kg in presence of aspirin): almost the same as those of the control group | Gastric juice volume [4, 8]: 12.3 ± 0.5 mL | Pepsin concentration [4, 8]: 26.3 ± 0.5 mg/mL | Titrable acidity [4, 8]: 56.2±3.8 mEq/L | Acid output [4, 8]: 97.8±6.5 μEq/hr | Gastric juice volume [4, 9]: 12.1 ± 0.6 mL | Pepsin concentration [4, 9]: 25.5 ± 0.8 mg/mL | Titrable acidity [4, 9]: 88.9±4.8 mEq/L | Acid output [4, 9]: 154.0±12.1 μEq/hr | appearance of gastric juices compared with control group ([4]; L-glutamine 250 mg/kg or more, aspirin 100 mg/kg): relatively clear | Gastric juice volume [4, 10]: 12.5 ± 0.5 mL | Pepsin concentration [4, 10]: 27.1 ± 0.7 mg/mL | Titrable acidity [4, 10]: 108.0±4.2 mEq/L | Acid output [4, 10]: 194.1±13.5 μEq/hr | change in acid parameters (in words) ([4]; L-glutamine 500 mg/kg in presence of aspirin): No significant change | Gastric juice volume [4, 11]: 11.9 ± 0.4 mL | Pepsin concentration [4, 11]: 25.4 ± 0.7 mg/mL | Titrable acidity [4, 11]: 127.1±4.6 mEq/L | Acid output [4, 11]: 215.5±10.3 μEq/hr | effect on acid output (in words) [4, 12]: considerably increases the titrable acidity and acid output | effect on titrable acidity (in words) [4, 12]: considerably increases the titrable acidity | Gastric juice volume [4, 13]: 12.2 ± 0.3 mL | Pepsin concentration [4, 13]: 23.6 ± 1.1 mg/mL | Titrable acidity [4, 13]: 139.4±3.4 mEq/L | Acid output [4, 13]: 243.9±8.1 μEq/hr | pepsin concentration (in words) ([4]; L-glutamine at a wide range of doses): maintained at a normal level | effect on absorption of aspirin (in words) [5]: does not inhibit the absorption of aspirin | Rectal temperature ([6]; 0 hour): 38.6±0.2 °C | Rectal temperature ([6]; 1 hour): 38.5±0.2 °C | Rectal temperature ([6]; 2 hours): 38.2±0.3 °C | Rectal temperature ([6]; 4 hours): 38.1±0.4 °C | Rectal temperature ([6]; 6 hours): 38.2±0.3 °C | influence on antipyretic activity of aspirin ([6]; presence of L-glutamine): not substantially influenced | Suppression ratio [7, 14]: 5.4% | Swelling ratio [7, 14]: 117.2±4.7% | influence on anti-inflammatory activity of aspirin ([7]; presence of L-glutamine): not substantially influenced
